These results are taken from ChEMBL document CHEMBL1201862, “PubChem BioAssay data set” (2004).

The structures appear in SMILES notation.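 Results reflect a 48-hour exposure of cells in 96-well plates to compound at five concentrations. Abbreviation: GI50, concentration required for 50% inhibition of growth.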 The source made the active and inactive calls. Cut-off read from the data, not from the text of the source: active = GI50 up to about 1.1 µM and inactive = higher. Bounds are passed on as bounds.

Assay in all cases: NCI-60 cell line screen, 48 h
For assay [1], the system named is NCI-H226.
The subject of assay [2] is HOP-62.
Assay [3] has as its system OVCAR-3.
In assay [4] the test system is NCI-H23.
Assay [5] concerns 786-0.
The test system of assay [6] is MOLT-4.
The subject of assay [7] is SK-MEL-2.
The test system of assay [8] is DU-145.
Assay [9] deals with RPMI-8226.
Assay [10] has as its system T47D.
For assay [11], the system named is SF-295.
Assay [12] concerns SK-MEL-5.
The test system of assay [13] is A498.
The subject of assay [14] is BT-549.
Assay [15] relates to SNB-75.
Assay [16] deals with MCF7.
Assay [17] has as its system UACC-257.
Assay [18] concerns OVCAR-4.
The test system of assay [19] is SK-OV-3.

As to `CCOC(=O)C1C(=O)CC(C)(O)C(C(=O)OCC)C1c1ccc(OC)cc1` (configuration not stated), the GI50 in assay [1] is 1.6 µM (inactive); in assay [2] it was > 100 µM (inactive); in [3], > 100 µM (inactive); in assay [4], > 100 µM (inactive); in assay [5] it was > 100 µM (inactive); in assay [6], > 100 µM (inactive). The GI50 in [7], in [8], in [9], in assay [10], in assay [11] and in [12] was > 100 µM (inactive) each time. Besides, the GI50 in assay [13], in assay [14], in assay [15], in assay [16], in [17] and in assay [18] was > 100 µM (inactive) in each case.

As to `CC1=C(C#N)C(=O)N(/N=C/c2ccc(Cl)cc2)C(=O)/C1=c1\o/c(=C2/C(=O)N(/N=C/c3ccc(Cl)cc3)C(=O)C(C#N)=C2C)c2nccnc12`, the GI50 in assay [1] is 78.2 µM (inactive); in assay [3], > 100 µM (inactive); in assay [19], > 100 µM (inactive); in assay [4] it was > 100 µM (inactive); in assay [5], > 100 µM (inactive); in assay [6] it was 88.3 µM (inactive). The GI50 in [7] is > 100 µM (inactive); in assay [8], > 100 µM (inactive); in assay [9], 60.7 µM (inactive); in assay [10], > 100 µM (inactive); in assay [11], > 100 µM (inactive); in assay [12], 96.6 µM (inactive). Further, the GI50 in assay [13] is > 100 µM (inactive); in assay [14], > 100 µM (inactive); in assay [15], 15.3 µM (inactive); in [16], 70.5 µM (inactive); in assay [17] it was > 100 µM (inactive); in assay [18], 57.5 µM (inactive).

In the case of `O=CN1CCN(C(=O)c2ccc(Cl)cc2)C1=S`, the GI50 was 43.5 µM (inactive) in [1]; 19.1 µM (inactive) in [2]; 15.4 µM (inactive) in assay [3]; 25.1 µM (inactive) in [19]; 23 µM (inactive) in assay [4]; 6.79 µM (inactive) in assay [5]. Further, the GI50 in assay [6] is 19.2 µM (inactive); in [7], 16.3 µM (inactive); in assay [8] it was 15.7 µM (inactive); in [9], 3.35 µM (inactive); in assay [10], 12.8 µM (inactive); in assay [11], 26.9 µM (inactive). Besides, the GI50 in [13] was 14.8 µM (inactive); in assay [14], 25.4 µM (inactive); in assay [15], 20 µM (inactive); in assay [16], 2.79 µM (inactive); in assay [17], 17.5 µM (inactive); in assay [18], 17.3 µM (inactive).

Take `C=CCOc1ccccc1C1(O)c2ccccc2C2=NCCCN21` (configuration not stated): the GI50 in assay [1] is 31.8 µM (inactive); in assay [2], 18.9 µM (inactive); in assay [3] it was 22.2 µM (inactive); in assay [19], > 100 µM (inactive); in [4], 30.8 µM (inactive); in assay [5] it was 47.3 µM (inactive). For the same compound, the GI50 in assay [6] was 32.9 µM (inactive); in assay [8], 57.9 µM (inactive); in [9] it was 35.6 µM (inactive); in [10], > 100 µM (inactive); in assay [11] it was 31 µM (inactive); in [12], 25.6 µM (inactive). For the same compound, the GI50 is > 100 µM (inactive) in assay [13]; 81.1 µM (inactive) in assay [14]; 15.1 µM (inactive) in [15]; 31.5 µM (inactive) in assay [16]; 30.9 µM (inactive) in [17]; 70.3 µM (inactive) in assay [18].

On to `O=C1C(Cl)=C(NCCCN2CCOCC2)C(=O)c2c(O)ccc(O)c21`, for which the GI50 in assay [1] was 3.54 µM (inactive); in [2], 1.96 µM (inactive); in assay [3], 1.61 µM (inactive); in assay [19], 7.89 µM (inactive); in assay [4] it was 1.75 µM (inactive); in assay [5], 2.29 µM (inactive). The GI50 in [6] is 1 µM (active); in [7], 0.228 µM (active); in assay [8] it was 1.6 µM (inactive); in assay [9], 0.0598 µM (active); in [10], 4.89 µM (inactive); in [11], 2.53 µM (inactive). Also, the GI50 in assay [12] is 1.1 µM (active); in [13], 10 µM (inactive); in assay [14], 1.64 µM (inactive); in assay [15] it was 2.38 µM (inactive); in [16] it was 1.55 µM (inactive); in assay [17], 2.35 µM (inactive).

With `O=C(/N=N/c1ccc([N+](=O)[O-])cc1)NNc1ccc([N+](=O)[O-])cc1`, the GI50 in [1] is 19.5 µM (inactive); in assay [2], 13.3 µM (inactive); in assay [3], 20.5 µM (inactive); in assay [4], 15.5 µM (inactive); in assay [5], 13.7 µM (inactive); in assay [6] it was 11 µM (inactive). Besides, the GI50 in [7] is 13.3 µM (inactive); in [8] it was 5.74 µM (inactive); in assay [9] it was 14.3 µM (inactive); in [10], 9.14 µM (inactive); in assay [12] it was 13.9 µM (inactive); in [13] it was 4.46 µM (inactive). The GI50 in [14] was 15.5 µM (inactive); in [15] it was 23.9 µM (inactive); in [16] it was 4.58 µM (inactive); in assay [17], 24.3 µM (inactive); in [18], 18.1 µM (inactive).

Turning to `N#CC(C#N)=C1C(=Cc2ccc(OCCCCCCCCCCSSCCCCCCCCCCOc3ccc(C=C4C(=C(C#N)C#N)c5ccccc5C4=C(C#N)C#N)cc3)cc2)C(=C(C#N)C#N)c2ccccc21`, the GI50 is 24 µM (inactive) in assay [1]; 22.5 µM (inactive) in [2]; 29.7 µM (inactive) in [3]; 17.3 µM (inactive) in assay [4]; 21.8 µM (inactive) in assay [5]; 23.6 µM (inactive) in [6]. Further, the GI50 in assay [7] is 25.8 µM (inactive); in assay [8], 22 µM (inactive); in assay [9], 39.2 µM (inactive); in [10], 31.6 µM (inactive); in assay [11], 20.1 µM (inactive); in assay [12] it was 22.1 µM (inactive). Also, the GI50 in [13] is 18.7 µM (inactive); in [14], 17 µM (inactive); in [15] it was 25.7 µM (inactive); in [16] it was 20.8 µM (inactive); in assay [17], 39.5 µM (inactive); in assay [18], 21.8 µM (inactive).

`O=c1oc(-c2ccc(O)cc2)cc2cc(O)ccc12`: the GI50 in assay [2] is 34.8 µM (inactive); in assay [3] it was 27.5 µM (inactive); in assay [19] it was 26.3 µM (inactive); in [4] it was 20.9 µM (inactive); in [5], 39.4 µM (inactive); in [6] it was 18.5 µM (inactive). Besides, the GI50 in assay [7] was 33.3 µM (inactive); in assay [8] it was 39 µM (inactive); in [9] it was 48.8 µM (inactive); in assay [10], 19.9 µM (inactive); in assay [11], 39.4 µM (inactive); in assay [12], 11.2 µM (inactive). Also, the GI50 in assay [13] was 14.7 µM (inactive); in assay [14], 23 µM (inactive); in assay [15], 31.6 µM (inactive); in [16], 20.6 µM (inactive); in assay [17], 52 µM (inactive); in assay [18], 32.7 µM (inactive).

For `Cn1ccc(C(=O)NCCN(CCNC(=O)c2ccn(C)c(=O)c2O)CCNC(=O)c2cccc(=O)n2O)c(O)c1=O`, the GI50 in assay [1], in [2], in [3], in [19], in [4] and in assay [5] was > 100 µM (inactive) each time. For the same compound, the GI50 in [7], in assay [8], in assay [9], in assay [10], in assay [11] and in [12] was > 100 µM (inactive) each time. In addition, the GI50 in [13], in assay [14], in [15], in assay [16], in [17] and in assay [18] was > 100 µM (inactive) each time.

On to `CCCCC(=O)c1c(O)ccc2c(C)cc(=O)oc12`, for which the GI50 in [1] was > 100 µM (inactive); in assay [2], > 100 µM (inactive); in assay [3], > 100 µM (inactive); in [4], 99.8 µM (inactive); in [5] it was > 100 µM (inactive); in assay [6] it was 77.1 µM (inactive). For the same compound, the GI50 was 3.14 µM (inactive) in assay [7]; 64.9 µM (inactive) in assay [8]; 52 µM (inactive) in assay [9]; 14.8 µM (inactive) in [10]; > 100 µM (inactive) in [11]; 53.5 µM (inactive) in [12]. Also, the GI50 in assay [13] was 97.7 µM (inactive); in assay [14], 37.6 µM (inactive); in assay [15], > 100 µM (inactive); in assay [16], 76.2 µM (inactive); in assay [17], > 100 µM (inactive); in assay [18], 69.8 µM (inactive).

On to `O=C(O)C1CCCN(CCc2c[nH]c3ccccc23)C1` (configuration not stated), for which the GI50 in assay [1], in [2], in [3], in assay [19], in assay [4] and in assay [5] was > 100 µM (inactive) in each case. Moreover, the GI50 in [6], in assay [7], in [8], in assay [9], in [10] and in assay [11] was > 100 µM (inactive) in each case. Further, the GI50 in assay [13], in assay [14], in assay [15], in [16], in assay [17] and in assay [18] was > 100 µM (inactive) in each case.
